Source: ChEMBL document CHEMBL5465560, “Selectivity Literature for EUbOPEN Chemogenomic Library” (2024)

How the values were obtained:
[1] = target: T1, Bone morphogenetic protein receptor type-2 (Homo sapiens) (UniProt Q13873); assay: Selectivity interaction (KinomeScan (DiscoverX)) EUB0000595a BMPR2; conditions: at 10 µM
T1 sequence (whole entry): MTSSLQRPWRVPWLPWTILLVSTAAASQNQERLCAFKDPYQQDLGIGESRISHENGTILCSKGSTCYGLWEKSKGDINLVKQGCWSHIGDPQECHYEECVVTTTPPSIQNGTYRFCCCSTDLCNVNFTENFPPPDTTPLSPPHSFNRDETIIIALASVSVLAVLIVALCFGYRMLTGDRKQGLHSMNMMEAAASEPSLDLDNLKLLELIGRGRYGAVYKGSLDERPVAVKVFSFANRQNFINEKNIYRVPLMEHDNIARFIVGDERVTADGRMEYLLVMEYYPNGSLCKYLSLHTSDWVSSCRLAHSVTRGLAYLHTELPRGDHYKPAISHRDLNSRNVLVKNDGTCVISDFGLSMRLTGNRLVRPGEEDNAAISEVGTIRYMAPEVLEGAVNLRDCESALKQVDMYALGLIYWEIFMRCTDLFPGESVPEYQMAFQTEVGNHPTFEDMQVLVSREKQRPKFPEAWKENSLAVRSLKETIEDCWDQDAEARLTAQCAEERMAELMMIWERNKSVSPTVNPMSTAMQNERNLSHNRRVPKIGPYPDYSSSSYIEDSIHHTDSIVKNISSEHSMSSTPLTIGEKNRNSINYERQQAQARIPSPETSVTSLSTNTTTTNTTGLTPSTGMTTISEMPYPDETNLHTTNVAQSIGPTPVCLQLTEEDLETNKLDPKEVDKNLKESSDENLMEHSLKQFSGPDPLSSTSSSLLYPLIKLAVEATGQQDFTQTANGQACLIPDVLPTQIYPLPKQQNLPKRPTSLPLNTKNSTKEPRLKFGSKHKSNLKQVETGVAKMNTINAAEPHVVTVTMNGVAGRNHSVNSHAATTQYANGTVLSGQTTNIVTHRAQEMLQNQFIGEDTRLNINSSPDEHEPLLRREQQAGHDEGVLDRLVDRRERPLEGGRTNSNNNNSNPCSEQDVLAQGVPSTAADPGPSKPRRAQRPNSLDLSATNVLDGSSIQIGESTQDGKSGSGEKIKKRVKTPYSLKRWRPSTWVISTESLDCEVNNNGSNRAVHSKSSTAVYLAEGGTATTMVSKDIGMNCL

[2] = target: Casein kinase I isoform gamma-3 (Homo sapiens) (UniProt Q9Y6M4); assay: Selectivity interaction (KinomeScan (DiscoverX)) EUB0000595a CSNK1G3; conditions: at 10 µM
[3] = target: Serine/threonine-protein kinase 32C (Homo sapiens) (UniProt Q86UX6); assay: Selectivity interaction (KinomeScan (DiscoverX)) EUB0000595a STK32C; conditions: at 10 µM
[4] = target: Serine/threonine-protein kinase MRCK gamma (Homo sapiens) (UniProt Q6DT37); conditions: at 10 µM
[5] = target: Serine/threonine-protein kinase Chk2 (Homo sapiens) (UniProt O96017); assay: Selectivity interaction (KinomeScan (DiscoverX)) EUB0001079a CHEK2; conditions: at 1 µM
[6] = target: Ribosomal protein S6 kinase alpha-5 (Homo sapiens) (UniProt O75582); assay: Selectivity interaction (KinomeScan (DiscoverX)) EUB0001079a RPS6KA5; conditions: at 1 µM
[7] = target: Tyrosine-protein kinase BAZ1B (Homo sapiens) (UniProt Q9UIG0); assay: Selectivity interaction (Bromodomain panel (DSF asssay)) EUB0000270b BAZ1B
[8] = target: Serine/threonine-protein kinase PLK1 (Homo sapiens, UniProt P53350); assay: Selectivity interaction (Kinase panel (literature)) EUB0001199aCl PLK1; conditions: at 1 µM
[9] = target: Glycogen synthase kinase-3 alpha (Homo sapiens, UniProt P49840); assay: Selectivity interaction (KinomeScan (DiscoverX)) EUB0000607a GSK3A; conditions: at 10 µM
[10] = target: T2, Serine/threonine-protein kinase RIO1 (Homo sapiens) (UniProt Q9BRS2); assay: Selectivity interaction (KinomeScan (DiscoverX)) EUB0000607a RIOK1; conditions: at 10 µM
T2 sequence (whole entry): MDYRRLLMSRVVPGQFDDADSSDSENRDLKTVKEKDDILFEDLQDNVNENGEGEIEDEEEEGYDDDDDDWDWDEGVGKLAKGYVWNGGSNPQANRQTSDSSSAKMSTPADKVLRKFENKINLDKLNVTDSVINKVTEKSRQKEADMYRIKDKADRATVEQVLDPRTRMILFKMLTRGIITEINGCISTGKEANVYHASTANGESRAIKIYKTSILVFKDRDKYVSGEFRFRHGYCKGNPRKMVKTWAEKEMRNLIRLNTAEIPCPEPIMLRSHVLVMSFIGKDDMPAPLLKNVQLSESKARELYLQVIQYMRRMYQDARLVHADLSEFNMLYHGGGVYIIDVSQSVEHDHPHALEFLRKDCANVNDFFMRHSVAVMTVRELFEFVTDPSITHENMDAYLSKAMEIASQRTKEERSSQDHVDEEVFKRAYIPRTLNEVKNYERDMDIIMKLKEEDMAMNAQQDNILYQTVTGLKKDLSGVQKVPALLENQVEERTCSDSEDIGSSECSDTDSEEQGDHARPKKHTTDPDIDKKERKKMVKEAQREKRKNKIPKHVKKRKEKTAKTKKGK

Sequence of Serine/threonine-protein kinase Chk2 (Homo sapiens) (O96017 whole entry): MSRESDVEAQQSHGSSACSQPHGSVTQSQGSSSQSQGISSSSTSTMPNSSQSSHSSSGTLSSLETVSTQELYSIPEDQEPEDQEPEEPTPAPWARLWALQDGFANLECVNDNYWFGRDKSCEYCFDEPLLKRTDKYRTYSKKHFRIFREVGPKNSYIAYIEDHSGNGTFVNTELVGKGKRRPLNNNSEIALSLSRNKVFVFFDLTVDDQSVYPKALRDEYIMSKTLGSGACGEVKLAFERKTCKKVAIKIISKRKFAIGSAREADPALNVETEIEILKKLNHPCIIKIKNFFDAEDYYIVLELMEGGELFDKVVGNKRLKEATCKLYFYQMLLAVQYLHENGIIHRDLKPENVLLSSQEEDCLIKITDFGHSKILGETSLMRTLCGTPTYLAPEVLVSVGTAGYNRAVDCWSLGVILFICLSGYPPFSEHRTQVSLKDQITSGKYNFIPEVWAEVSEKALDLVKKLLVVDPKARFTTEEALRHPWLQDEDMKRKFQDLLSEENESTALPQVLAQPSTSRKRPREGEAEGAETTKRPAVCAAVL
Sequence of Serine/threonine-protein kinase MRCK gamma (Homo sapiens) (Q6DT37 whole entry): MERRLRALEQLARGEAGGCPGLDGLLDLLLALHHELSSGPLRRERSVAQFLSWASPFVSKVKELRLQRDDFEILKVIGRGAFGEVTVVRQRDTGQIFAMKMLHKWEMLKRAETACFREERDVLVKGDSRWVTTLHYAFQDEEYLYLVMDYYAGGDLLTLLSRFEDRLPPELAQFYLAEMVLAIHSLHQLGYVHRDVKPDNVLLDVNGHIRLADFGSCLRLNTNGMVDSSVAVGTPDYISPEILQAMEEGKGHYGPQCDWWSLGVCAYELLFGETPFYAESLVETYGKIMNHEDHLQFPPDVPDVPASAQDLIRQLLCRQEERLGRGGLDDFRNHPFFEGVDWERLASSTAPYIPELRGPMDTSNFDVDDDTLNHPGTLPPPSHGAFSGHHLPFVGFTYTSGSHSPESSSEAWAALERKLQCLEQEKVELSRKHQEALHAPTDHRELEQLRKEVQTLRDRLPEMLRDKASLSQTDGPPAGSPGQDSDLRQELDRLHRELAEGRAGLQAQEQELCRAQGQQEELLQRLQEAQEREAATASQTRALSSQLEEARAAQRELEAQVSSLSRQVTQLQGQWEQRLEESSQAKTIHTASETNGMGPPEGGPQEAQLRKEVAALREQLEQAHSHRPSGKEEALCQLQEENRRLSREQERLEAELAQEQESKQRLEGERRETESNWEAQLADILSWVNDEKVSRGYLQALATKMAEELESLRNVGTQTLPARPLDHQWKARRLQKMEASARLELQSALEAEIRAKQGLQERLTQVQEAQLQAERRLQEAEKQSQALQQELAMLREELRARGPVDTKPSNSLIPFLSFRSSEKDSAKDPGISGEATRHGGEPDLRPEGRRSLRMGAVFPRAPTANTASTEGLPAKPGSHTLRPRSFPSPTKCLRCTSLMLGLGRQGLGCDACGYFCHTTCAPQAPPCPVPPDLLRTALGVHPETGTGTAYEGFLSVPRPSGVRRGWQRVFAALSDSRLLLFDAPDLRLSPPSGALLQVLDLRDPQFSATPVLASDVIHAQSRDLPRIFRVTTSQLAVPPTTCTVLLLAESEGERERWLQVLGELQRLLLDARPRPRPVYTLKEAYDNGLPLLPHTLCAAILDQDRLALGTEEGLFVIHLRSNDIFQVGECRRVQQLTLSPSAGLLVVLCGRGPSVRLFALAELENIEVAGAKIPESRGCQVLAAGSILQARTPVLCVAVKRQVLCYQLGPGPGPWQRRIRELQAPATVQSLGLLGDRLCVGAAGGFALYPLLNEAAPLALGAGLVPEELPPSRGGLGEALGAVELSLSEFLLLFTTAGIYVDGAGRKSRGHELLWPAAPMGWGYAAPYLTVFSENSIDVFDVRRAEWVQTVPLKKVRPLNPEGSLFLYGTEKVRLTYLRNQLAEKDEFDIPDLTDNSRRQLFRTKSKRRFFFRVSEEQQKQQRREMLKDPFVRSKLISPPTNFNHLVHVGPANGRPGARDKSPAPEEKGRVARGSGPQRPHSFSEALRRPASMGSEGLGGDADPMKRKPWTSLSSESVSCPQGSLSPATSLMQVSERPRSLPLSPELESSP
Sequence of Serine/threonine-protein kinase PLK1 (P53350 whole entry): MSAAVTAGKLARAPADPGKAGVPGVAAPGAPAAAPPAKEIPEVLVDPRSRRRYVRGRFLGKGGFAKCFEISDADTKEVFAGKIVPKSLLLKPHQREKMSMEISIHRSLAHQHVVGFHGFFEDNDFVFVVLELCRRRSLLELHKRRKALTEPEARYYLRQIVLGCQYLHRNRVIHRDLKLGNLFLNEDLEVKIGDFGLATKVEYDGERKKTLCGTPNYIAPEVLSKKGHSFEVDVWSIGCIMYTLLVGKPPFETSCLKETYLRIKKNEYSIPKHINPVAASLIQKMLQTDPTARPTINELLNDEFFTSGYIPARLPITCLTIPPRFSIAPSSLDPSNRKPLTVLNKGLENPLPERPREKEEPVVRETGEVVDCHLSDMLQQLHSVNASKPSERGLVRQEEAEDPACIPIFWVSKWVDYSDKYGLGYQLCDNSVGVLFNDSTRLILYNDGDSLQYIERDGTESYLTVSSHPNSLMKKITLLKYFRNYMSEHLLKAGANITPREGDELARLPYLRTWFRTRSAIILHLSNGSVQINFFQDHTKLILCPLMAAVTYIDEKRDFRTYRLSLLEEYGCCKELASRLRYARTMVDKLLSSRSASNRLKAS
Sequence of Serine/threonine-protein kinase 32C (Homo sapiens) (Q86UX6 whole entry): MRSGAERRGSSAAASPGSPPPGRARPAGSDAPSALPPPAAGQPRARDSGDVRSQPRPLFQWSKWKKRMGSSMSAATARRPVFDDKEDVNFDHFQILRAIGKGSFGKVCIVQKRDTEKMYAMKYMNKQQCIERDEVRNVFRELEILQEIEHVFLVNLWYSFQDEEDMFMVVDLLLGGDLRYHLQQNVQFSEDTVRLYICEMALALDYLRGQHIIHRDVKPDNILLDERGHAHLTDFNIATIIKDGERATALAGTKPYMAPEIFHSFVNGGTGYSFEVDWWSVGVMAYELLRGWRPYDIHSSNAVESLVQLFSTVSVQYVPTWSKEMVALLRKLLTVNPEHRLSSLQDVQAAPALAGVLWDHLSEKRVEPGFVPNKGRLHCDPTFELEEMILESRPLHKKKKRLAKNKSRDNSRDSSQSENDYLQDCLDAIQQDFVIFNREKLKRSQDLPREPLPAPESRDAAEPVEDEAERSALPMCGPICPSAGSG
Sequence of Glycogen synthase kinase-3 alpha (P49840 2-483 limits assumed): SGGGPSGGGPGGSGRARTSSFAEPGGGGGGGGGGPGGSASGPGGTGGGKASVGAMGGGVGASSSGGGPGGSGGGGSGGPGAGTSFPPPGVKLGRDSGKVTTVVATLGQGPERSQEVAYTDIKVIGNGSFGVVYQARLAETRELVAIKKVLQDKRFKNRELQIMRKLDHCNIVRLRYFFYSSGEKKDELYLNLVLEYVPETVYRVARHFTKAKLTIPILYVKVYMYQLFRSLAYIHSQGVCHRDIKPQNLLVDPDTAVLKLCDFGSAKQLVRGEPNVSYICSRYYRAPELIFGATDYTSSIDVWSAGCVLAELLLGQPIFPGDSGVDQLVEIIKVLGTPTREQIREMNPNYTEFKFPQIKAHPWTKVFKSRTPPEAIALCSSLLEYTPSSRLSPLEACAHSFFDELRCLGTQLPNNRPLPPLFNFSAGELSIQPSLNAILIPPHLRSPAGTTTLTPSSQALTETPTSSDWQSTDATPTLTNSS
Sequence of Casein kinase I isoform gamma-3 (Homo sapiens) (Q9Y6M4 whole entry, looked up, canonical isoform): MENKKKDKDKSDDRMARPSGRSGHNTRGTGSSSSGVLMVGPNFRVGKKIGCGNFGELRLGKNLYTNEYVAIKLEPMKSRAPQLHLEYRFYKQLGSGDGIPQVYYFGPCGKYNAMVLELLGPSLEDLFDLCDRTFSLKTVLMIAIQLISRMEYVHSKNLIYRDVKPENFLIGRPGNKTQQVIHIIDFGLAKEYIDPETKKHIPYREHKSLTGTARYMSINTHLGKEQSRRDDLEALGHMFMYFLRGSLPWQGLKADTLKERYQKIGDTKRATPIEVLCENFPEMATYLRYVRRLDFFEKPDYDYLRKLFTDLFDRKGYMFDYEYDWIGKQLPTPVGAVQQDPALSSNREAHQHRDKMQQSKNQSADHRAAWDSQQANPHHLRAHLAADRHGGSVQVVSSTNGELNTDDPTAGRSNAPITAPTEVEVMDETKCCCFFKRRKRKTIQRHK
Sequence of Ribosomal protein S6 kinase alpha-5 (Homo sapiens) (O75582 whole entry, looked up): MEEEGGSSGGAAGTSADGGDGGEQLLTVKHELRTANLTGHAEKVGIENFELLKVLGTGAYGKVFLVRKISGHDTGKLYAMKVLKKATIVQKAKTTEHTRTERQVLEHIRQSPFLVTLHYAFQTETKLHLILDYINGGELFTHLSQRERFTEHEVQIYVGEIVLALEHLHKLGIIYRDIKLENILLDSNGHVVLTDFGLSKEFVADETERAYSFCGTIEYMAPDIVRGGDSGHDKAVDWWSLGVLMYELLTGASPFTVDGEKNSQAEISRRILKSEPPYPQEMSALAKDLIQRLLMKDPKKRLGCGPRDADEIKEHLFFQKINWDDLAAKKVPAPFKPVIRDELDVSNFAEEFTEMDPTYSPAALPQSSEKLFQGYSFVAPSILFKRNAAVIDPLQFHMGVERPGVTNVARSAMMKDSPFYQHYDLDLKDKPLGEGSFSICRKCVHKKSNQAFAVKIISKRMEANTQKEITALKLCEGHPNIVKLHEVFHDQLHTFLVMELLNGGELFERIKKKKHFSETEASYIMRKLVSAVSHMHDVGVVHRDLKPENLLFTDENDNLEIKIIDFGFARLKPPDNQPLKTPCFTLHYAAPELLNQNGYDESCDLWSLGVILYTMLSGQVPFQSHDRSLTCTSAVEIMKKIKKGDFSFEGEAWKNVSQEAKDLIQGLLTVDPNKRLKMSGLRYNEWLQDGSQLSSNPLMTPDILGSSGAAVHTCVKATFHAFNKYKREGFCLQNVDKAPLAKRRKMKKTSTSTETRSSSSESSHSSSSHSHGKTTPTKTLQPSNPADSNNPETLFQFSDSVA

`COCC(=O)NC/C=C/c1ccc2ncnc(Nc3ccc(Oc4ccc(C)nc4)c(C)c3)c2c1` [CP-724714] showed a % of control [1] of 74%, a % of control [2] of 100% and a % of control [3] of 86%. The % of control [4] was 90%.

`Nc1cnc(N2CCc3cc(S(=O)(=O)Nc4c(F)cc(Cl)cc4F)cc(N4CCCC4=O)c32)nc1` [TP-020n] was tested, and the % of control [5] was 92% and the % of control [6] was 95%.

`Cc1cc(CN)cc(C)c1-c1ncn(C)c1-c1cncn1C` was tested, and the dTM [7] was -1.22 K.

`CN1Cc2nccc(-c3cn(C)nc3-c3ccc(F)cc3)c2C1=O` was tested, and the % of inhibition [8] was -3%.

Work on `CNC(=O)Nc1ccc(-c2nc(N3CC4CCC(C3)O4)c3cnn(C4CCC5(CC4)OCCO5)c3n2)cc1` yielded a % of control [9] of 82% and a % of control [10] of 91%.
